In US20070116782A1, “USE OF RARE EARTH COMPOUNDS FOR THE PREVENTION OF KIDNEY STONE DISEASE” (SHIRE INT[…] B.V., priority 2001, published 2007):
Read-outs that look alike come from different tables or passages of the source.

Columns and labels:
[1] = Procedure: (§1) In order to assess removal of oxalate from a stock solution by lanthanum carbonate, an oxalate binding assay was developed. […] Further, the buffer conditions were designed to mimic the conditions present in the stomach and in the small intestine. Briefly, 50 mL of a stock sodium oxalate solution containing 8.5 g/L sodium chloride was adjusted to the desired pH using 5N HCl and the Mettler-Toledo DL58 autotitrator. Various combinations of oxalate and lanthanum carbonate concentrations were tested to determine which would maximize oxalate removal. Prior to the addition of the desired amount of lanthanum carbonate, a 2 mL sample was taken to act as a zero time point sample. The volume of buffer was made up to 50 mL again by adding 2 mL of stock oxalate buffer back to the pH adjusted buffer and the lanthanum carbonate was added. […] In addition, samples were assayed at 590 nm in a Falcon 96-well microplate using the Molecular Devices Spectramax 190 plate reader.
In order to maximize the accuracy of the results, the filtered samples were assayed at a 1/20 dilution.
The procedure described above was repeated at various pH's in the range of 3-7.

[2] = 0.1 M compound, 0.01 M oxalate, 0.1 M phosphate (10-fold excess)
Procedure: In addition, samples were assayed at 590 nm in a Falcon 96-well microplate using the Molecular Devices Spectramax 190 plate reader.

[3] = 0.1 M compound; 0.1 M phosphate, 0.01 M oxalate; pH 3 gradually increased to pH 7
Source text: In order to simulate the passing of lanthanum oxalate through the digestive system, a final experiment was designed which would study both oxalate and phosphate removal as the pH changed from pH 3 (i.e. stomach pH) to pH 7 (i.e. approximate intestinal pH).
Removal of both oxalate and phosphate were monitored for ten minutes. […] Samples were taken at pH 4, 5, 6, and 7 in order to assess changes in the amount of oxalate and phosphate present in the solution.

[4] = Oxalate binding assay of Example 1 with pH maintained with 1N NaOH (chlorides, acetates); details: pH 7, pH maintained with 1N NaOH
Procedure: as §1

[5] = pH 7, 0.1 M compound, 0.01 M sodium oxalate, 8.5 g/L sodium chloride

O=C([O-])[O-].O=C([O-])[O-].O=C([O-])[O-].[Ce+3].[Ce+3] [cerium carbonate]
oxalate binding ([1]; pH 3 (compared with pH 7), 0.1 M compound): less effective
oxalate binding compared with 0.1 M lanthanum carbonate ([1]; pH 7, 0.1 M compound): as effective as 0.1 M lanthanum carbonate

O.O.O.O.O.O=C([O-])[O-].O=C([O-])[O-].O=C([O-])[O-].[La+3].[La+3] [lanthanum carbonate pentahydrate]
oxalate binding [1, 5]: can effectively bind oxalate
competitive binding of oxalate vs phosphate ([2]; pH 3.0): Preferential binding of phosphate
competitive binding of oxalate vs phosphate ([2]; pH 7.0): preferentially bind oxalate over phosphate

O.O.O.O.O=C([O-])[O-].O=C([O-])[O-].O=C([O-])[O-].[La+3].[La+3] [lanthanum carbonate tetrahydrate]
oxalate binding [1, 5]: can effectively bind oxalate
oxalate binding at various pH ([1]; pH range 3-7): can bind oxalate in this pH range (3-7) with preferential binding at pH 6-7

O=C([O-])[O-].O=C([O-])[O-].O=C([O-])[O-].[La+3].[La+3] [lanthanum carbonate]
oxalate binding in the presence of excess phosphate during pH transition [3]: can successfully bind oxalate

[Cl][La]([Cl])[Cl] [lanthanum chloride]
oxalate binding [4]: binds oxalate quite rapidly
